# Results taken from patent US20100152434A1, “Protein Kinase-binding Nucleosides and Associated Methods” (priority 2007, published 2010).
# Like-named read-outs stand apart in the source and are kept apart here.
# What was measured:
# 788-0 = test: cells; conditions: Homo sapiens, 786-0
# MCF7 [1] = test: cells; conditions: Homo sapiens
# MCF7 [2] = test system: MCF7
# HCC-2998 = test: cells; conditions: Homo sapiens
# SK-OV-3 = test: cells; conditions: Homo sapiens
# SF-295 = test: cells; conditions: Homo sapiens
# HOP-62 = test: cells; conditions: Homo sapiens
# OVCAR-4 = test: cells; conditions: Homo sapiens
# DU-145 = test: cells; conditions: Homo sapiens
# LOX IMVI = test: cells; conditions: Homo sapiens
# IGROV1 = test: cells; conditions: Homo sapiens
smiles,measurement,setting,value
"CNC(=O)NC[C@H]1O[C@@H](n2cnc3c(NC(=O)Nc4ccccc4)ncnc32)[C@H](O[Si](C)(C)C(C)(C)C)[C@@H]1CC(=O)N(C)OC [Compound 13, 2′-O-(tert-Butyldimethylsilyl)-3′,5′-dideoxy-3′-[(N-methoxy-N-methylcarboxamido)methyl]-5′-[(N-methylcarbamoyl)amino]-N^6-(N-phenylcarbamoyl)adenosine]",TGI,TK-10,>1.00E−4 Molar
same,Percent Growth,TK-10; Log10 Concentration −4.0,17%
same,Percent Growth,TK-10; Log10 Concentration −5.0,65%
same,Percent Growth,TK-10; Log10 Concentration −6.0,104%
same,Percent Growth,TK-10; Log10 Concentration −7.0,106%
same,Percent Growth,TK-10; Log10 Concentration −8.0,99%
same,TGI,U251,>1.00E−4 Molar
same,Percent Growth,U251; Log10 Concentration −4.0,25%
same,Percent Growth,U251; Log10 Concentration −5.0,37%
same,Percent Growth,U251; Log10 Concentration −6.0,90%
same,Percent Growth,U251; Log10 Concentration −7.0,101%
same,Percent Growth,U251; Log10 Concentration −8.0,97%
same,TGI,SK-MEL-5,>1.00E−4 Molar
same,Percent Growth,SK-MEL-5; Log10 Concentration −4.0,11%
same,Percent Growth,SK-MEL-5; Log10 Concentration −5.0,38%
same,Percent Growth,SK-MEL-5; Log10 Concentration −6.0,89%
same,Percent Growth,SK-MEL-5; Log10 Concentration −7.0,98%
same,Percent Growth,SK-MEL-5; Log10 Concentration −8.0,104%
same,GI50,788-0,9.01 µM
same,GI50,MCF7 [1]; MCF7,5.59 µM
same,CC50,"MCF7 [1]; MCF7, read-out: LC50",> 100 µM
same,TGI,MCF7 [2],>1.00E−4 Molar
same,Percent Growth,MCF7 [2]; Log10 Concentration −5.0,34%
same,Percent Growth,MCF7 [2]; Log10 Concentration −6.0,96%
same,Percent Growth,MCF7 [2]; Log10 Concentration −7.0,95%
same,Percent Growth,MCF7 [2]; Log10 Concentration −8.0,91%
same,TGI,RPMI-8226,5.40E−6 Molar
same,Percent Growth,RPMI-8226; Log10 Concentration −4.0,−16%
same,Percent Growth,RPMI-8226; Log10 Concentration −5.0,−25%
same,Percent Growth,RPMI-8226; Log10 Concentration −6.0,69%
same,Percent Growth,RPMI-8226; Log10 Concentration −7.0,91%
same,Percent Growth,RPMI-8226; Log10 Concentration −8.0,80%
same,TGI,M14,>1.00E−4 Molar
same,Percent Growth,M14; Log10 Concentration −4.0,18%
same,Percent Growth,M14; Log10 Concentration −5.0,57%
same,Percent Growth,M14; Log10 Concentration −6.0,91%
same,Percent Growth,M14; Log10 Concentration −7.0,98%
same,Percent Growth,M14; Log10 Concentration −8.0,98%
same,TGI,KM12,>1.00E−4 Molar
same,Percent Growth,KM12; Log10 Concentration −4.0,30%
same,Percent Growth,KM12; Log10 Concentration −5.0,62%
same,Percent Growth,KM12; Log10 Concentration −6.0,106%
same,Percent Growth,KM12; Log10 Concentration −7.0,108%
same,Percent Growth,KM12; Log10 Concentration −8.0,101%
same,GI50,HCC-2998; HCC 2998,30.6 µM
same,CC50,"HCC-2998; HCC 2998, read-out: LC50",> 100 µM
same,TGI,MDA-MB-231/ATCC,>1.00E−4 Molar
same,Percent Growth,MDA-MB-231/ATCC; Log10 Concentration −4.0,5%
same,Percent Growth,MDA-MB-231/ATCC; Log10 Concentration −5.0,55%
same,Percent Growth,MDA-MB-231/ATCC; Log10 Concentration −6.0,94%
same,Percent Growth,MDA-MB-231/ATCC; Log10 Concentration −7.0,104%
same,Percent Growth,MDA-MB-231/ATCC; Log10 Concentration −8.0,97%
same,TGI,OVCAR-8,>1.00E−4 Molar
same,Percent Growth,OVCAR-8; Log10 Concentration −4.0,22%
same,Percent Growth,OVCAR-8; Log10 Concentration −5.0,48%
same,Percent Growth,OVCAR-8; Log10 Concentration −6.0,103%
same,Percent Growth,OVCAR-8; Log10 Concentration −7.0,106%
same,Percent Growth,OVCAR-8; Log10 Concentration −8.0,107%
same,GI50,SK-OV-3; SK-OV-3,52.7 µM
same,CC50,"SK-OV-3; SK-OV-3, read-out: LC50",> 100 µM
same,TGI,NCI-H23,>1.00E−4 Molar
same,Percent Growth,NCI-H23; Log10 Concentration −4.0,43%
same,Percent Growth,NCI-H23; Log10 Concentration −5.0,71%
same,Percent Growth,NCI-H23; Log10 Concentration −6.0,99%
same,Percent Growth,NCI-H23; Log10 Concentration −7.0,103%
same,Percent Growth,NCI-H23; Log10 Concentration −8.0,106%
same,GI50,SF-295; SF-295,9.09 µM
same,CC50,"SF-295; SF-295, read-out: LC50",> 100 µM
same,TGI,OVCAR-5,>1.00E−4 Molar
same,Percent Growth,OVCAR-5; Log10 Concentration −4.0,35%
same,Percent Growth,OVCAR-5; Log10 Concentration −5.0,71%
same,Percent Growth,OVCAR-5; Log10 Concentration −6.0,92%
same,Percent Growth,OVCAR-5; Log10 Concentration −7.0,98%
same,Percent Growth,OVCAR-5; Log10 Concentration −8.0,99%
same,GI50,HOP-62; HOP-62,24.9 µM
same,CC50,"HOP-62; HOP-62, read-out: LC50",> 100 µM
same,GI50,OVCAR-4; OVCAR-4,53 µM
same,CC50,"OVCAR-4; OVCAR-4, read-out: LC50",> 100 µM
same,GI50,DU-145; DU-145,16.6 µM
same,CC50,"DU-145; DU-145, read-out: LC50",> 100 µM
same,GI50,LOX IMVI,7.3 µM
same,CC50,LOX IMVI; read-out: LC50,> 100 µM
same,TGI,OVCAR-3,>1.00E−4 Molar
same,Percent Growth,OVCAR-3; Log10 Concentration −4.0,6%
same,Percent Growth,OVCAR-3; Log10 Concentration −5.0,41%
same,Percent Growth,OVCAR-3; Log10 Concentration −6.0,100%
same,Percent Growth,OVCAR-3; Log10 Concentration −7.0,107%
same,Percent Growth,OVCAR-3; Log10 Concentration −8.0,95%
same,TGI,UACC-62,>1.00E−4 Molar
same,Percent Growth,UACC-62; Log10 Concentration −4.0,39%
same,Percent Growth,UACC-62; Log10 Concentration −5.0,69%
same,Percent Growth,UACC-62; Log10 Concentration −6.0,96%
same,Percent Growth,UACC-62; Log10 Concentration −7.0,107%
same,Percent Growth,UACC-62; Log10 Concentration −8.0,102%
same,TGI,BT-549,>1.00E−4 Molar
same,Percent Growth,BT-549; Log10 Concentration −4.0,26%
same,Percent Growth,BT-549; Log10 Concentration −5.0,70%
same,Percent Growth,BT-549; Log10 Concentration −6.0,96%
same,Percent Growth,BT-549; Log10 Concentration −7.0,98%
same,Percent Growth,BT-549; Log10 Concentration −8.0,95%
same,GI50,IGROV1; IGROV-1,3.72 µM
same,CC50,"IGROV1; IGROV-1, read-out: LC50",> 100 µM
same,TGI,SNB-19,>1.00E−4 Molar
same,Percent Growth,SNB-19; Log10 Concentration −4.0,51%
same,Percent Growth,SNB-19; Log10 Concentration −5.0,61%
same,Percent Growth,SNB-19; Log10 Concentration −6.0,83%
same,Percent Growth,SNB-19; Log10 Concentration −7.0,93%
same,Percent Growth,SNB-19; Log10 Concentration −8.0,94%
same,TGI,HT29,>1.00E−4 Molar
same,Percent Growth,HT29; Log10 Concentration −4.0,17%
same,Percent Growth,HT29; Log10 Concentration −5.0,32%
same,Percent Growth,HT29; Log10 Concentration −6.0,100%
same,Percent Growth,HT29; Log10 Concentration −7.0,107%
same,Percent Growth,HT29; Log10 Concentration −8.0,104%
